Source: patent US9469615B2, “Quinoxalines and AZA-quinoxalines as CRTH2 receptor modulators” (Merck Sharp & Dohme Corp., priority 2010, dated 2016)

molecular target: T1, hCRTH2 (Homo sapiens, UniProt Q9Y5Y4); assay: Radioligand binding assay ([3H]PGD2 competition, HEK-hCRTH2 membranes); conditions: [3H]PGD2 binding, values in text
T1 construct: expressed in transfected cells; host or cells: HEK (human embryonic kidney) cells expressing hCRTH2; membrane preparation
T1 sequence (Q9Y5Y4 1-395): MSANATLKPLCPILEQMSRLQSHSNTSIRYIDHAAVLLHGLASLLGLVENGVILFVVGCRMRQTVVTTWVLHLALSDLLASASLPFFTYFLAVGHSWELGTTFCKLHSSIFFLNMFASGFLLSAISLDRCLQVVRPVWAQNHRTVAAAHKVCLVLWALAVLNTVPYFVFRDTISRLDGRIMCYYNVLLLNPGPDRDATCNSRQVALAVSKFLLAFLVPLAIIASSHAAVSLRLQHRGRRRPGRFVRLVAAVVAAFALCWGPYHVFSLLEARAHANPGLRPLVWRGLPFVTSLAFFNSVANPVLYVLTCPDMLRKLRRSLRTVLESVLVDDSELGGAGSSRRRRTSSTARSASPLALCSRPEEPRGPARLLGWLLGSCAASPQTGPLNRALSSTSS
Outline: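 HEK-hCRTH2 membranes, 8-20 μg; [3H]PGD2 3.0 nM; 50 mM Tris-HCl pH 7.4/1 mM EDTA/2 mM MnCl2; DMSO 1%; 60 min RT; NSB 10 μM PGD2; filtration, scintillation counting.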

Ki [nM] | SMILES
21.4 | Cc1cnccc1N1CCN(C(=O)c2ccc3nc(-c4ccc(F)cc4)c(CCCCC(=O)O)nc3c2)CC1 [compound 368, 5-(3-(4-fluorophenyl)-7-(4-(3-methylpyridin-4-yl)piperazine-1-carbonyl)quinoxalin-2-yl)pentanoic acid]

same assay, conditions: [3H]PGD2 competition, Table B

Ki [nM] | SMILES
20.1 to 200 | O=C(O)CCCCc1nc2cc(C(=O)N[C@@H]3CCCc4ccncc43)ccc2nc1-c1ccc(F)cc1 [compound 354, (R)-5-(3-(4-fluorophenyl)-7-((5,6,7,8-tetrahydroisoquinolin-8-yl)carbamoyl)quinoxalin-2-yl)pentanoic acid]
2.1 to 20 | O=C(O)CCCCc1nc2cc(C(=O)N[C@@H]3CCSc4ccccc43)ccc2nc1-c1ccc(F)cc1 [compound 355, (R)-5-(3-(4-fluorophenyl)-7-(thiochroman-4-ylcarbamoyl)quinoxalin-2-yl)pentanoic acid]
20.1 to 200 | O=C(O)CCCCc1nc2cc(C(=O)N3CCC(n4c(=O)[nH]c5ccccc54)CC3)ccc2nc1-c1ccc(F)cc1 [compound 356, 5-(3-(4-fluorophenyl)-7-(4-(2-oxo-2,3-dihydro-1H-benzo[d]imidazol-1-yl)piperidine-1-carbonyl)quinoxalin-2-yl)pentanoic acid]
2.1 to 20 | O=C(O)CCCCc1nc2cc(C(=O)N3CCN(c4ccccn4)CC3)ccc2nc1-c1ccc(F)cc1 [compound 357, 5-(3-(4-fluorophenyl)-7-(4-(pyridin-2-yl)piperazine-1-carbonyl)quinoxalin-2-yl)pentanoic acid]
2.1 to 20 | N#Cc1cccnc1N1CCN(C(=O)c2ccc3nc(-c4ccc(F)cc4)c(CCCCC(=O)O)nc3c2)CC1 [compound 358, 5-(7-(4-(3-cyanopyridin-2-yl)piperazine-l-carbonyl)-3-(4-fluorophenyl)quinoxalin-2-yl)pentanoic acid]
2.1 to 20 | N#Cc1ccccc1N1CCN(C(=O)c2ccc3nc(-c4ccc(F)cc4)c(CCCCC(=O)O)nc3c2)CC1 [compound 359, 5-(7-(4-(2-cyanophenyl)piperazine-1-carbonyl)-3-(4-fluorophenyl)quinoxalin-2-yl)pentanoic acid]
20.1 to 200 | O=C(O)CCCCc1nc2cc(C(=O)N3CCN(c4cnccn4)CC3)ccc2nc1-c1ccc(F)cc1 [compound 360, 5-(3-(4-fluorophenyl) 7-(4-(pyrazin-2-yl)piperazine-1-carbonyl)quinoxalin-2-yl)pentanoic acid]
2.1 to 20 | COc1ccccc1C1CCN(C(=O)c2ccc3nc(-c4ccc(F)cc4)c(CCCCC(=O)O)nc3c2)CC1 [compound 361, 5-(3-(4-fluorophenyl)-7-(4-(2-methoxyphenyl)piperidine-1-carbonyl)quinoxalin-2-yl)pentanoic acid]
2.1 to 20 | O=C(O)CCCCc1nc2cc(C(=O)N3CCC4(CC3)OCc3ccccc34)ccc2nc1-c1ccc(F)cc1 [compound 362, 5-(3-(4-fluorophenyl)-7-(3H-spiro[isobenzofuran-1,4′-piperidin]-1′-ylcarbonyl)quinoxalin-2-yl)pentanoic acid]
2.1 to 20 | O=C(O)CCCCc1nc2cc(C(=O)N3CCN(c4ccccc4C(F)(F)F)CC3)ccc2nc1-c1ccc(F)cc1 [compound 363, 5-(3-(4-fluorophenyl)-7-(4-(2-(trifluoromethyl)phenyl)piperazine-1-carbonyl)quinoxalin-2-yl)pentanoic acid]
2.1 to 20 | O=C(O)CCCCc1nc2cc(C(=O)N3CCN(c4ccccc4Cl)CC3)ccc2nc1-c1ccc(F)cc1 [compound 364, 5-(7-(4-(2-chlorophenyl)piperazine-1-carbonyl)-3-(4-fluorophenyl)quinoxalin-2-yl)pentanoic acid]
2.1 to 20 | Cc1ccccc1N1CCN(C(=O)c2ccc3nc(-c4ccc(F)cc4)c(CCCCC(=O)O)nc3c2)CC1 [compound 365, 5-(3-(4-fluorophenyl)-7-(4-(o-tolyl)piperazine-1-carbonyl)quinoxalin-2-yl)pentanoic acid]
2.1 to 20 | Cc1cccc(N2CCN(C(=O)c3ccc4nc(-c5ccc(F)cc5)c(CCCCC(=O)O)nc4c3)CC2)c1 [compound 366, 5-(3-(4-fluorophenyl)-7-(4-(m-tolyl)piperazine-1-carbonyl)quinoxalin-2-yl)pentanoic acid]
2.1 to 20 | COc1ccc(N2CCN(C(=O)c3ccc4nc(-c5ccc(F)cc5)c(CCCCC(=O)O)nc4c3)CC2)cc1 [compound 367, 5-(3-(4-fluorophenyl)-7-(4-(4-methoxyphenyl)piperazine-1-carbonyl)quinoxalin-2-yl)pentanoic acid]
20.1 to 200 | Cc1cnccc1N1CCN(C(=O)c2ccc3nc(-c4ccc(F)cc4)c(CCCCC(=O)O)nc3c2)CC1 [compound 368, 5-(3-(4-fluorophenyl)-7-(4-(3-methylpyridin-4-yl)piperazine-1-carbonyl)quinoxalin-2-yl)pentanoic acid]
2.1 to 20 | Cc1ccc(N2CCN(C(=O)c3ccc4nc(-c5ccc(F)cc5)c(CCCCC(=O)O)nc4c3)CC2)cc1 [compound 369, 5-(3-(4-fluorophenyl)-7-(4-(p-tolyl)piperazine-1-carbonyl)quinoxalin-2-yl)pentanoic acid]

Ki [nM] | SMILES
201 to 700 | O=C(O)CCCCc1nc2cc(C(=O)N[C@@H]3CCCc4cccnc43)ccc2nc1-c1ccccc1 [compound 370, (R)-8-(3-(4-carboxybutyl)-2-phenylquinoxaline-6-carboxamido)-5,6,7,8-tetrahydroquinolin-1-ium 2,2,2-trifluoroacetic acid]
2.1 to 20 | O=C(O)CCCCc1nc2cc(C(=O)N[C@H]3CCCc4cccnc43)ccc2nc1-c1ccccc1 [compound 371, (S)-8-(3-(4-carboxybutyl)-2-phenylquinoxaline-6-carboxamido)-5,6,7,8-tetrahydroquinolin-1-ium 2,2,2-trifluoroacetic acid]
2.1 to 20 | COc1ccc(C2CN(C(=O)c3ccc4nc(-c5ccc(F)cc5)c(CCCCC(=O)O)nc4c3)C2)cc1 [compound 372, 5-(3-(4-fluorophenyl)-7-(3-(4-methoxyphenyl)azetidine-1-carbonyl)quinoxalin-2-yl)pentanoic acid]
2.1 to 20 | COc1cccc(C2CN(C(=O)c3ccc4nc(-c5ccc(F)cc5)c(CCCCC(=O)O)nc4c3)C2)c1 [compound 373, 5-(3-(4-fluorophenyl)-7-(3-(3-methoxyphenyl)azetidine-1-carbonyl)quinoxalin-2-yl)pentanoic acid]
0.1 to 2 | C[C@@H](NC(=O)c1ccc2nc(-c3ccc(Cl)cc3)c(CCCCC(=O)O)nc2c1)c1ccc(F)c(F)c1 [compound 374, (R)-5-(3-(4-chlorophenyl)-7-((1-(3,4-difluorophenyl)ethyl)carbamoyl)quinoxalin-2-yl)pentanoic acid]
0.1 to 2 | C[C@H](NC(=O)c1ccc2nc(-c3ccc(Cl)cc3)c(CCCCC(=O)O)nc2c1)c1ccc(F)c(F)c1 [compound 375, (S)-5-(3-(4-chlorophenyl)-7-((1-(3,4-difluorophenyl)ethyl)carbamoyl)quinoxalin-2-yl)pentanoic acid]
2.1 to 20 | CC[C@@H](NC(=O)c1ccc2nc(-c3ccc(Cl)cc3)c(CCCCC(=O)O)nc2c1)c1ccc(F)cc1 [compound 376, (R)-5-(3-(4-chlorophenyl)-7-((1-(4-fluorophenyl)propyl)carbamoyl)quinoxalin-2-yl)pentanoic acid]
2.1 to 20 | CC[C@H](NC(=O)c1ccc2nc(-c3ccc(Cl)cc3)c(CCCCC(=O)O)nc2c1)c1ccc(F)cc1 [compound 377]
20.1 to 200 | CN(C(=O)c1ccc2nc(-c3ccccc3)c(CCCCC(=O)O)nc2c1)[C@@H]1CCCc2ccccc21 [compound 378, (R)-5-(7-(methyl(1,2,3,4-tetrahydronaphthalen-1-yl)carbamoyl)-3-phenylquinoxalin-2-yl)pentanoic acid]
2.1 to 20 | CN(C(=O)c1ccc2nc(-c3ccccc3)c(CCCCC(=O)O)nc2c1)[C@@H]1CCCc2cc(F)ccc21 [compound 379, (R)-5-(7-((6-fluoro-1,2,3,4-tetrahydronaphthalen-1-yl)(methyl)carbamoyl)-3-phenylquinoxalin-2-yl)pentanoic acid]
2.1 to 20 | CN(C(=O)c1ccc2nc(-c3ccccc3)c(CCCCC(=O)O)nc2c1)[C@@H]1CCCc2cc(Cl)ccc21 [compound 380, (R)-5-(7-((6-chloro-1,2,3,4-tetrahydronaphthalen-1-yl)(methyl)carbamoyl)-3-phenylquinoxalin-2-yl)pentanoic acid]
0.1 to 2 | O=C(O)CCCCc1nc2cc(C(=O)N[C@@H]3CCc4cc(F)ccc43)ccc2nc1-c1ccc(Cl)cc1 [compound 381, (R)-5-(3-(4-chlorophenyl)-7-((5-fluoro-2,3-dihydro-1H-inden-1-yl)carbamoyl)quinoxalin-2-yl)pentanoic acid]
0.1 to 2 | O=C(O)CCCCc1nc2cc(C(=O)N[C@H]3CCc4cc(F)ccc43)ccc2nc1-c1ccc(Cl)cc1 [compound 382, (S)-5-(3-(4-chlorophenyl)-7-((5-fluoro-2,3-dihydro-1H-inden-1-yl)carbamoyl)quinoxalin-2-yl)pentanoic acid]
0.1 to 2 | O=C(O)CCCCc1nc2cc(C(=O)N[C@@H]3CCc4cc(Cl)ccc43)ccc2nc1-c1ccc(Cl)cc1 [compound 383, (R)-5-(7-((5-chloro-2,3-dihydro-1H-inden-1-yl)carbamoyl)-3-(4-chlorophenyl)quinoxalin-2-yl)pentanoic acid]
0.1 to 2 | O=C(O)CCCCc1nc2cc(C(=O)N[C@H]3CCc4cc(Cl)ccc43)ccc2nc1-c1ccc(Cl)cc1 [compound 384, (S)-5-(7-((5-chloro-2,3-dihydro-1H-inden-1-yl)carbamoyl)-3-(4-chlorophenyl)quinoxalin-2-yl)pentanoic acid]
